Assay results: patent US12110305B2, “Prodrugs of phosphonamide nucleotide analogues and their pharmaceutical use” (priority 2020, dated 2024)

System: HIV-1 (IIIB)
Experiment: Antiviral (HIV) assay in MT-4 cells
Type: cell-based
Conditions: Human immunodeficiency virus 1, MT4, 120 h; HIV-1 IIIB in MT-4 cells, 5 days incubation, Cell Titer Glo; average of at least two independent experiments
Protocol: Example 104: Antiviral (HIV) Assay in MT-4 Cells
Compounds were tested in a high-throughput 384-well assay format for their ability to inhibit the replication of HIV-1 (IIIB) in MT-4 cells. Compounds were serially diluted (1:3) in DMSO on 384-well polypropylene plates and further diluted 200-fold into complete RPMI media (10% FBS, 1% P/S) using the Biotek Micro Flow and Labcyte ECHO acoustic dispenser. Each plate contained up to 8 test compounds, with negative (no drug) and positive (5 μM AZT) controls. MT-4 cells were pre-treated with 10 μL of either RPMI (mock-infected) or a fresh 1:250 dilution of HIV-1 IIIB concentrated virus stock. Infected and uninfected MT-4 cells were further diluted in complete RPMI media and added to each plate using a Micro Flow dispenser. After 5 days incubation in a humidified and temperature-controlled incubator (37° C.), Cell Titer Glo (Promega) was added to the assay plates and chemiluminescence read using an Envision plate-reader. EC50 values were defined as the compound concentration that causes a 50% decrease in luminescence signal and were calculated using a sigmoidal dose-response model to generate curve fits and are shown in Table 1.

Structure (SMILES) | EC50 [nM]
C[C@H](Cn1cnc2c(N)ncnc21)OCP(=O)(NC(C)(C)C(=O)OCC1CCCC1)NC(C)(C)C(=O)OCC1CCCC1 [Example 45, Bis(cyclopentylmethyl) 2,2′-(((((1-(6-amino-9H-purin-9-yl)propan-2-yl)oxy)methyl)phosphoryl)bis(azanediyl))(R)-bis(2-methylpropanoate)] | 3
C[C@H](Cn1cnc2c(N)ncnc21)OCP(=O)(NC(C)(C)C(=O)OCC1CCCCC1)NC(C)(C)C(=O)OCC1CCCCC1 [Example 46, Bis(cyclohexylmethyl) 2,2′-(((((1-(6-amino-9H-purin-9-yl)propan-2-yl)oxy)methyl)phosphoryl)bis(azanediyl))(R)-bis(2-methylpropanoate)] | 5
C[C@H](Cn1cnc2c(N)ncnc21)OCP(=O)(NC(C)(C)C(=O)OCC12CCC(CC1)CC2)NC(C)(C)C(=O)OCC12CCC(CC1)CC2 [Example 48, Bis(bicyclo[2.2.2]octan-1-ylmethyl) 2,2′-(((((1-(6-amino-9H-purin-9-yl)propan-2-yl)oxy)methyl)phosphoryl)bis(azanediyl))(R)-bis(2-methylpropanoate)] | 6
C[C@H](Cn1cnc2c(N)ncnc21)OCP(=O)(NC(C)(C)C(=O)OCC1CC2(CCC2)C1)NC(C)(C)C(=O)OCC1CC2(CCC2)C1 (stereo partly drawn) [Example 50, Bis(spiro[3.3]heptan-2-ylmethyl) 2,2′-(((((1-(6-amino-9H-purin-9-yl)propan-2-yl)oxy)methyl)phosphoryl)bis(azanediyl))(R)-bis(2-methylpropanoate)] | 7
C[C@H](Cn1cnc2c(N)ncnc21)OCP(=O)(NC(C)(C)C(=O)OCC1CCC2(CCC2)CC1)NC(C)(C)C(=O)OCC1CCC2(CCC2)CC1 (stereo partly drawn) [Example 53, Bis(spiro[3.5]nonan-7-ylmethyl) 2,2′-(((((1-(6-amino-9H-purin-9-yl)propan-2-yl)oxy)methyl)phosphoryl)bis(azanediyl))(R)-bis(2-methylpropanoate)] | 6
CCC(C)(C)CCOC(=O)C(C)(C)NP(=O)(CO[C@H](C)Cn1cnc2c(N)ncnc21)NC(C)(C)C(=O)OCCC(C)(C)CC [Example 54, Bis(3,3-dimethylpentyl) 2,2′-(((((1-(6-amino-9H-purin-9-yl)propan-2-yl)oxy)methyl)phosphoryl)bis(azanediyl))(R)-bis(2-methylpropanoate)] | 4
C[C@H](Cn1cnc2c(N)ncnc21)OCP(=O)(NC(C)(C)C(=O)O[C@H](C)C1CCCCC1)NC(C)(C)C(=O)O[C@H](C)C1CCCCC1 [Example 55, Bis((R)-1-cyclohexylethyl) 2,2′-((((((R)-1-(6-amino-9H-purin-9-yl)propan-2-yl)oxy)methyl)phosphoryl)bis(azanediyl))bis(2-methylpropanoate)] | 101
C[C@H](Cn1cnc2c(N)ncnc21)OCP(=O)(NC(C)(C)C(=O)O[C@@H](C)C1CCCCC1)NC(C)(C)C(=O)O[C@@H](C)C1CCCCC1 [Example 56, Bis((S)-1-cyclohexylethyl) 2,2′-((((((R)-1-(6-amino-9H-purin-9-yl)propan-2-yl)oxy)methyl)phosphoryl)bis(azanediyl))bis(2-methylpropanoate)] | 177
C[C@H](Cn1cnc2c(N)ncnc21)OCP(=O)(NC(C)(C)C(=O)OCC1CC2(C1)CC1(CCC1)C2)NC(C)(C)C(=O)OCC1CC2(C1)CC1(CCC1)C2 [Example 57, Bis(dispiro[3.1.3^6.1^4]decan-2-ylmethyl) 2,2′-(((((1-(6-amino-9H-purin-9-yl)propan-2-yl)oxy)methyl)phosphoryl)bis(azanediyl))(R)-bis(2-methylpropanoate)] | 23
C[C@H](Cn1cnc2c(N)ncnc21)OCP(=O)(NC(C)(C)C(=O)OCC1CC2(C1)CC(F)(F)C2)NC(C)(C)C(=O)OCC1CC2(C1)CC(F)(F)C2 [Example 58, Bis((6,6-difluorospiro[3.3]heptan-2-yl)methyl) 2,2′-(((((1-(6-amino-9H-purin-9-yl)propan-2-yl)oxy)methyl)phosphoryl)bis(azanediyl))(R)-bis(2-methylpropanoate)] | 5
C[C@H](Cn1cnc2c(N)ncnc21)OCP(=O)(NC(C)(C)C(=O)OCC12CC3CC(CC(C3)C1)C2)NC(C)(C)C(=O)OCC12CC3CC(CC(C3)C1)C2 [Example 59, Bis(((1S,3S)-adamantan-1-yl)methyl) 2,2′-((((((R)-1-(6-amino-9H-purin-9-yl)propan-2-yl)oxy)methyl)phosphoryl)bis(azanediyl))bis(2-methylpropanoate)] | 47

Next, values leading:

EC50 [nM] | Structure (SMILES)
2 | C[C@H](Cn1cnc2c(N)ncnc21)OCP(=O)(NC(C)(C)C(=O)OC1CC(C)(C)C1)NC(C)(C)C(=O)OC1CC(C)(C)C1 [Example 42, Bis(3,3-dimethylcyclobutyl) 2,2′-(((((1-(6-amino-9H-purin-9-yl)propan-2-yl)oxy)methyl)phosphoryl)bis(azanediyl))(R)-bis(2-methylpropanoate)]
20 | CC(C)OC(=O)C(C)(C)NP(=O)(CO[C@H](C)Cn1cnc2c(N)ncnc21)NC(C)(C)C(=O)OC(C)C [Example 43, Diisopropyl 2,2′-(((((1-(6-amino-9H-purin-9-yl)propan-2-yl)oxy)methyl)phosphoryl)bis(azanediyl))(R)-bis(2-methylpropanoate)]
7 | C[C@H](Cn1cnc2c(N)ncnc21)OCP(=O)(NC(C)(C)C(=O)OC1CCC(C)(C)CC1)NC(C)(C)C(=O)OC1CCC(C)(C)CC1 [Example 44, Bis(4,4-dimethylcyclohexyl) 2,2′-(((((1-(6-amino-9H-purin-9-yl)propan-2-yl)oxy)methyl)phosphoryl)bis(azanediyl))(R)-bis(2-methylpropanoate)]
7 | C[C@H](Cn1cnc2c(N)ncnc21)OCP(=O)(NC(C)(C)C(=O)OC1CCC1)NC(C)(C)C(=O)OC1CCC1 [Example 47, Dicyclobutyl 2,2′-(((((1-(6-amino-9H-purin-9-yl)propan-2-yl)oxy)methyl)phosphoryl)bis(azanediyl))(R)-bis(2-methylpropanoate)]
5 | CCC1(CC)CC(OC(=O)C(C)(C)NP(=O)(CO[C@H](C)Cn2cnc3c(N)ncnc32)NC(C)(C)C(=O)OC2CC(CC)(CC)C2)C1 [Example 49, Bis(3,3-diethylcyclobutyl) 2,2′-(((((1-(6-amino-9H-purin-9-yl)propan-2-yl)oxy)methyl)phosphoryl)bis(azanediyl))(R)-bis(2-methylpropanoate)]
8 | C[C@H](Cn1cnc2c(N)ncnc21)OCP(=O)(NC(C)(C)C(=O)O[C@H]1C[C@@H](C(C)(C)C)C1)NC(C)(C)C(=O)O[C@H]1C[C@@H](C(C)(C)C)C1 [Example 51, Bis((1S,3S)-3-(tert-butyl)cyclobutyl) 2,2′-((((((R)-1-(6-amino-9H-purin-9-yl)propan-2-yl)oxy)methyl)phosphoryl)bis(azanediyl))bis(2-methylpropanoate)]
8 | C[C@H](Cn1cnc2c(N)ncnc21)OCP(=O)(NC(C)(C)C(=O)O[C@H]1C[C@H](C(C)(C)C)C1)NC(C)(C)C(=O)O[C@H]1C[C@H](C(C)(C)C)C1 [Example 52, Bis((1R,3R)-3-(tert-butyl)cyclobutyl) 2,2′-((((((R)-1-(6-amino-9H-purin-9-yl)propan-2-yl)oxy)methyl)phosphoryl)bis(azanediyl))bis(2-methylpropanoate)]
